Experiments:
Test in all cases: combination Emax (second highest fraction inhibited in the dose matrix, 72 h); higher = more inhibition; extreme values may be limits of the assay
[1] = tested on: KYSE-150 (Esophageal Squamous Cell Carcinoma)
Procedure, shortened: (§1)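 Bliss excess equals the observed combination effect minus the expected value EA + EB − EA·EB, where EA and EB are the effects of each agent alone. Combination Emax is the second-highest inhibition within the matrix. Inhibition was scaled from CellTiter-Glo 2.0 luminescence, with 0 set by vehicle wells and 1 by blank wells, after 72 hours of two-drug dosing of cells plated in 1536-well plates.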

[2] = tested on: NCI-N87 (Gastric Carcinoma)
Procedure, shortened: as §1

GOTO (Neuroblastoma) = tested on: GOTO (Neuroblastoma)
Procedure, shortened: as §1

[3] = tested on: HC-1 (Other Blood Carcinomas)
Procedure, shortened: as §1

NH-12 (Neuroblastoma) = tested on: NH-12 (Neuroblastoma)
Procedure, shortened: as §1

U-87-MG (Glioblastoma) = tested on: U-87-MG (Glioblastoma)
Procedure, shortened: as §1

[4] = tested on: HSC-2 (Oral Cavity Carcinoma)
Procedure, shortened: as §1

[5] = tested on: DG-75 (Burkitt's Lymphoma)
Procedure, shortened: as §1

[6] = tested on: EMC-BAC-2 (Non-Small Cell Lung Carcinoma)
Procedure, shortened: as §1

EW-3 (Ewing's Sarcoma) = tested on: EW-3 (Ewing's Sarcoma)
Procedure, shortened: as §1

[7] = tested on: ASH-3 (Thyroid Gland Carcinoma)
Procedure, shortened: as §1

[8] = tested on: LC4-1 (B-Lymphoblastic Leukemia)
Procedure, shortened: as §1

[9] = tested on: NCI-H322M (Lung Adenocarcinoma)
Procedure, shortened: as §1

[10] = tested on: TGBC11TKB (Gastric Carcinoma)
Procedure, shortened: as §1

[11] = tested on: KU-19-19 (Bladder Carcinoma)
Procedure, shortened: as §1

[12] = tested on: LOU-NH91 (Squamous Cell Lung Carcinoma)
Procedure, shortened: as §1

[13] = tested on: JHH-7 (Hepatocellular Carcinoma)
Procedure, shortened: as §1

[14] = tested on: NCI-H1573 (Lung Adenocarcinoma)
Procedure, shortened: as §1

[15] = tested on: NCI-H513 (Other Solid Carcinomas)
Procedure, shortened: as §1

[16] = tested on: NCI-H2347 (Lung Adenocarcinoma)
Procedure, shortened: as §1

Structure (SMILES) | combination Emax [1] | combination Emax [2] | combination Emax (GOTO (Neuroblastoma)) | combination Emax [3] | combination Emax (NH-12 (Neuroblastoma)) | combination Emax (U-87-MG (Glioblastoma)) | combination Emax [4] | combination Emax [5] | combination Emax [6] | combination Emax (EW-3 (Ewing's Sarcoma)) | combination Emax [7] | combination Emax [8] | combination Emax [9] | combination Emax [10] | combination Emax [11] | combination Emax [12] | combination Emax [13] | combination Emax [14] | combination Emax [15] | combination Emax [16]
CS(=O)(=O)CCNCc1ccc(-c2ccc3ncnc(Nc4ccc(OCc5cccc(F)c5)c(Cl)c4)c3c2)o1 [Lapatinib] + C[C@@H](Oc1cc(-c2cnn(C3CCNCC3)c2)cnc1N)c1c(Cl)ccc(F)c1Cl [Crizotinib] (first compound max 10 µM, 7x7, partner max 10 µM) | 0.984 | 0.978 | 1 | 0.898 | 0.873 | 0.613 | 0.998 | 0.92 | 0.909 | 0.91 | 0.908 | 0.963 | 0.876 | 0.622 | 0.918 | 0.924 | 0.614 | 0.786 | 0.557 | 0.301
CN(CCO)CC[C@H](CSc1ccccc1)Nc1ccc(S(=O)(=O)NC(=O)c2ccc(N3CCC([C@@H](O)c4ccccc4-c4ccc(Cl)cc4)CC3)cc2)cc1S(=O)(=O)C(F)(F)F [AZD4320] + Cn1cnc2c(F)c(Nc3ccc(Br)cc3Cl)c(C(=O)NOCCO)cc21 [Selumetinib] (first compound max 1 µM, 7x7, partner max 3 µM) | 0.359 | 0.604 | 0.85 | 0.972 | 0.998 | 0.278 | 0.768 | 0.206 | 0.416 | 0.906 | 0.728 | 1 | 0.642 | 0.469 | 0.937 | 0.662 | 0.276 | 0.4 | 0.398 | 0.68
COc1nnc2ccc(N3CCC(c4ccc(OCCN5CCN(C)C(=O)[C@H]5C)cc4)CC3)nn12 [AZD5153] + C=CCn1c(=O)c2cnc(Nc3ccc(N4CCN(C)CC4)cc3)nc2n1-c1cccc(C(C)(C)O)n1 [AZD1775] (first compound max 1 µM, partner max 1 µM) | 0.666 | 0.717 | 0.919 | 0.948 | 0.91 | 0.53 | 0.679 | 0.905 | 0.735 | 0.622 | 0.742 | 0.941 | 0.841 | 0.831 | 0.731 | 0.948 | 0.316 | 0.637 | 0.437 | 0.413
CC1(C)CCC(CN2CCN(c3ccc(C(=O)NS(=O)(=O)c4ccc(NCC5CCOCC5)c([N+](=O)[O-])c4)c(Oc4cnc5[nH]ccc5c4)c3)CC2)=C(c2ccc(Cl)cc2)C1 [Venetoclax] + C=CCn1c(=O)c2cnc(Nc3ccc(N4CCN(C)CC4)cc3)nc2n1-c1cccc(C(C)(C)O)n1 [AZD1775] (first compound max 1 µM, partner max 1 µM) | 0.496 | 0.8 | 0.921 | 1 | 0.952 | 0.265 | 0.833 | 0.833 | 0.404 | 0.819 | 0.294 | 1 | 0.862 | 0.942 | 0.841 | 0.436 | 0.349 | 0.31 | 0.47 | 0.291
Cc1c2c(nn1C)CSCc1cc(n(C)n1)CSc1cc(c3ccccc3c1)OCCCc1c(C(=O)O)n(C)c3c-2c(Cl)ccc13 [AZD5991] + CCN(CCO)CCCOc1ccc2c(Nc3cc(CC(=O)Nc4cccc(F)c4)[nH]n3)ncnc2c1 [AZD2811] (first compound max 1 µM, 7x7, partner max 1 µM) | 0.498 | 0.395 | 0.709 | 0.737 | 0.752 | 0.326 | 0.968 | 0.229 | 0.823 | 0.771 | 0.3 | 0.993 | 0.188 | 0.582 | 0.508 | 0.612 | 0.453 | 0.425 | 0.197 | 0.213
CN(CCO)CC[C@H](CSc1ccccc1)Nc1ccc(S(=O)(=O)NC(=O)c2ccc(N3CCC([C@@H](O)c4ccccc4-c4ccc(Cl)cc4)CC3)cc2)cc1S(=O)(=O)C(F)(F)F [AZD4320] + C[C@@H]1COCCN1C2=NC(=NC(=C2)C3(CC3)[S@](=N)(=O)C)C4=C5C=CNC5=NC=C4 [AZD6738] (first compound max 1 µM, 7x7, partner max 10 µM) | 0.614 | 0.845 | 0.909 | 0.958 | 1 | 0.501 | 0.925 | 0.768 | 0.632 | 0.971 | 0.662 | 1 | 0.915 | 0.935 | 0.878 | 0.575 | 0.524 | 0.634 | 0.452 | 0.656
CC1(C)CCC(CN2CCN(c3ccc(C(=O)NS(=O)(=O)c4ccc(NCC5CCOCC5)c([N+](=O)[O-])c4)c(Oc4cnc5[nH]ccc5c4)c3)CC2)=C(c2ccc(Cl)cc2)C1 [Venetoclax] + Cn1cnc2c(F)c(Nc3ccc(Br)cc3Cl)c(C(=O)NOCCO)cc21 [Selumetinib] (first compound max 1 µM, 7x7, partner max 3 µM) | 0.273 | 0.242 | 0.236 | 0.521 | 0.777 | 0.223 | 0.161 | 0.257 | 0.347 | 0.643 | 0.294 | 1 | 0.541 | 0.313 | 0.748 | 0.246 | 0.145 | 0.289 | 0.228 | 0.344
CN(CCO)CC[C@H](CSc1ccccc1)Nc1ccc(S(=O)(=O)NC(=O)c2ccc(N3CCC([C@@H](O)c4ccccc4-c4ccc(Cl)cc4)CC3)cc2)cc1S(=O)(=O)C(F)(F)F [AZD4320] + CCN(CCO)CCCOc1ccc2c(Nc3cc(CC(=O)Nc4cccc(F)c4)[nH]n3)ncnc2c1 [AZD2811] (first compound max 1 µM, 7x7, partner max 1 µM) | 0.301 | 0.571 | 0.649 | 0.969 | 0.962 | 0.253 | 0.827 | 0.196 | 0.417 | 0.949 | 0.619 | 1 | 0.0611 | 0.439 | 0.498 | 0.877 | 0.538 | 0.27 | 0.13 | 0.476
C=CCn1c(=O)c2cnc(Nc3ccc(N4CCN(C)CC4)cc3)nc2n1-c1cccc(C(C)(C)O)n1 [AZD1775] + C1CN(CCC1(C(=O)N[C@@H](CCO)C2=CC=C(C=C2)Cl)N)C3=NC=NC4=C3C=CN4 [Capivasertib] (first compound max 3 µM, partner max 3 µM) | 0.727 | 0.689 | 0.712 | 0.982 | 0.852 | 0.467 | 0.757 | 0.922 | 0.592 | 0.518 | 0.519 | 0.884 | 0.768 | 0.939 | 0.856 | 0.727 | 0.727 | 0.604 | 0.494 | 0.477
Cn1cnc2c(F)c(Nc3ccc(Br)cc3Cl)c(C(=O)NOCCO)cc21 [Selumetinib] + CCN(CCO)CCCOc1ccc2c(Nc3cc(CC(=O)Nc4cccc(F)c4)[nH]n3)ncnc2c1 [AZD2811] (first compound max 10 µM, 7x7, partner max 1 µM) | 0.492 | 0.305 | 0.648 | 0.702 | 0.729 | 0.252 | 0.376 | 0.265 | 0.398 | 0.444 | 0.391 | 0.891 | 0.602 | 0.569 | 0.955 | 0.372 | 0.25 | 0.412 | 0.264 | 0.312
CC(=O)Nc1cccc(-n2c(=O)n(C3CC3)c(=O)c3c(Nc4ccc(I)cc4F)n(C)c(=O)c(C)c32)c1 [Trametinib] + Cc1nc(-c2cn3c(n2)-c2ccc(-c4cnn(C(C)(C)C(N)=O)c4)cc2OCC3)n(C(C)C)n1 [Taselisib] (first compound max 1 µM, 7x7, partner max 10 µM) | 0.886 | 0.913 | 0.701 | 0.665 | 0.841 | 0.837 | 1 | 0.307 | 0.945 | 0.364 | 0.962 | 0.328 | 0.887 | 0.86 | 1 | 0.672 | 0.429 | 0.89 | 0.757 | 0.618
Cc1c2c(nn1C)CSCc1cc(n(C)n1)CSc1cc(c3ccccc3c1)OCCCc1c(C(=O)O)n(C)c3c-2c(Cl)ccc13 [AZD5991] + Cc1cc2ncnn2cc1Nc1ncc2c(n1)n(C1CCOCC1)c(=O)n2C [AZD7648] (first compound max 1 µM, 7x7, partner max 10 µM) | 0.57 | 0.492 | 0.72 | 0.456 | 0.226 | 0.326 | 0.844 | 0.362 | 0.678 | 0.727 | 0.358 | 0.968 | 0.459 | 0.359 | 0.26 | 0.278 | 0.164 | 0.673 | 0.324 | 0.287
